Measured values published in PubChem BioAssay (NCI).
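Where inhibition never reached the appropriate level, the endpoint shown equals the highest concentration tested. Otherwise, values were interpolated linearly from a five-concentration, 48-hour dose response in 96-well plates. The concentration for full growth arrest is given as TGI.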

Legend:
Experiment in all cases: growth of human tumour cells (NCI), 48 h
[1] = system: M14 melanoma
[2] = system: EKVX NSCLC
[3] = system: TK-10 renal
[4] = system: SK-MEL-5 melanoma
[5] = system: SN12C renal
[6] = system: SF-295 CNS
[7] = system: DU-145 prostate
[8] = system: U251 CNS
[9] = system: ACHN renal
[10] = system: SK-MEL-2 melanoma
[11] = system: SNB-19 CNS
[12] = system: COLO 205 colon
[13] = system: OVCAR-4 ovarian
[14] = system: RPMI-8226 leukemia
[15] = system: NCI-H226 lung
[16] = system: UACC-257 melanoma
[17] = system: A498 renal
[18] = system: HOP-92 NSCLC
[19] = system: PC-3 prostate
[20] = system: SK-OV-3 ovarian
[21] = system: SW-620 colon
[22] = system: MALME-3M melanoma
[23] = system: HCC-2998 colon
[24] = system: HT29 colon
[25] = system: NCI-H522 lung
[26] = system: 786-0 renal
[27] = system: LOX IMVI melanoma
[28] = system: NCI-H23 lung
[29] = system: T-47D breast
[30] = system: KM12 colon
[31] = system: CAKI-1 renal
[32] = system: UO-31 renal
[33] = system: OVCAR-3 ovarian
[34] = system: HL-60(TB) leukemia
[35] = system: NCI-H460 lung
[36] = system: UACC-62 melanoma
[37] = system: HS 578T breast
[38] = system: OVCAR-5 ovarian
[39] = system: OVCAR-8 ovarian
[40] = system: A549 NSCLC
[41] = system: RXF 393 renal
[42] = system: HOP-62 NSCLC
[43] = system: MOLT-4 leukemia
[44] = system: SNB-75 CNS
[45] = system: MDA-N
[46] = system: SF-539 CNS
[47] = system: IGROV1 ovarian
[48] = system: MDA-MB-231 breast
[49] = system: K-562 leukemia
[50] = system: NCI/ADR-RES ovarian
[51] = system: BT-549 breast
[52] = system: SK-MEL-28 melanoma
[53] = system: HCT-116 colon
[54] = system: SR leukemia
[55] = system: MCF7 breast
[56] = system: MDA-MB-435
[57] = system: CCRF-CEM leukemia
[58] = system: HCT-15 colon
[59] = system: SF-268 CNS
[60] = system: M19-MEL melanoma
[61] = system: DMS 273 small cell lung
[62] = system: DLD-1 colon
[63] = system: LXFL 529 NSCLC
[64] = system: HOP-18 NSCLC
[65] = system: DMS 114 small cell lung

Oc1c(O)c(Cc2ccccc2)c(Cc2ccccc2)c(Cc2ccccc2)c1Cc1ccccc1
TGI [1]: > 10 µM
TGI [2]: > 10 µM
TGI [3]: > 10 µM
TGI [4]: > 10 µM
TGI [5]: > 10 µM
TGI [6]: > 10 µM
TGI [7]: > 10 µM
TGI [8]: > 10 µM
TGI [9]: > 10 µM
TGI [10]: > 10 µM
TGI [11]: > 10 µM
TGI [12]: > 10 µM
TGI [13]: > 10 µM
TGI [14]: > 10 µM
TGI [15]: > 10 µM
TGI [16]: > 10 µM
TGI [17]: > 10 µM
TGI [18]: > 10 µM
TGI [19]: > 10 µM
TGI [20]: > 10 µM
TGI [21]: > 10 µM
TGI [22]: > 10 µM
TGI [23]: > 10 µM
TGI [24]: > 10 µM
TGI [25]: > 10 µM
TGI [26]: > 10 µM
TGI [27]: > 10 µM
TGI [28]: > 10 µM
TGI [29]: > 10 µM
TGI [30]: > 10 µM
TGI [31]: > 10 µM
TGI [32]: > 10 µM
TGI [33]: > 10 µM
TGI [34]: > 10 µM
TGI [35]: > 10 µM
TGI [36]: > 10 µM
TGI [37]: > 10 µM
TGI [38]: > 10 µM
TGI [39]: > 10 µM
TGI [40]: > 10 µM
TGI [41]: > 10 µM
TGI [42]: > 10 µM
TGI [43]: > 10 µM
TGI [44]: > 10 µM
TGI [45]: > 10 µM
TGI [46]: > 10 µM
TGI [47]: > 10 µM
TGI [48]: > 10 µM
TGI [49]: > 10 µM
TGI [50]: > 10 µM
TGI [51]: > 10 µM
TGI [52]: > 10 µM
TGI [53]: > 10 µM
TGI [54]: > 10 µM
TGI [55]: > 10 µM
TGI [56]: > 10 µM
TGI [57]: > 10 µM
TGI [58]: > 10 µM
TGI [59]: > 10 µM

CN(CCCN1CCCC1)CCCN(C)C(=O)Cc1ccc(Cl)c(Cl)c1
TGI [1]: 13.9 µM
TGI [2]: 62.5 µM
TGI [3]: 32.1 µM
TGI [4]: 36.3 µM
TGI [5]: 70.2 µM
TGI [6]: 36.2 µM
TGI [7]: > 100 µM
TGI [8]: 29.7 µM
TGI [9]: > 68.3 µM
TGI [10]: 28.2 µM
TGI [11]: > 72.6 µM
TGI [12]: 41.2 µM
TGI [13]: > 96.1 µM
TGI [14]: 22.4 µM
TGI [15]: 48 µM
TGI [16]: 7.45 µM
TGI [17]: 28.1 µM
TGI [18]: 35.9 µM
TGI [19]: > 74.4 µM
TGI [20]: > 89.6 µM
TGI [21]: 50.7 µM
TGI [22]: 34.6 µM
TGI [23]: 20.6 µM
TGI [24]: 17.5 µM
TGI [25]: 32.4 µM
TGI [26]: 29.2 µM
TGI [27]: 27.9 µM
TGI [28]: 54.8 µM
TGI [29]: 45.9 µM
TGI [30]: 60.5 µM
TGI [31]: 49.1 µM
TGI [32]: 9.64 µM
TGI [33]: > 88.4 µM
TGI [34]: 37.1 µM
TGI [35]: 33.8 µM
TGI [36]: 5.04 µM
TGI [37]: 36 µM
TGI [38]: 78.1 µM
TGI [39]: > 100 µM
TGI [40]: > 53.6 µM
TGI [41]: 31.9 µM
TGI [42]: 51 µM
TGI [43]: 32.4 µM
TGI [44]: 42.6 µM
TGI [45]: 16 µM
TGI [46]: > 53.2 µM
TGI [47]: 67.8 µM
TGI [48]: 31.9 µM
TGI [49]: 18.3 µM
TGI [50]: > 100 µM
TGI [51]: 46.2 µM
TGI [52]: 5.26 µM
TGI [53]: 39.3 µM
TGI [54]: 28.2 µM
TGI [55]: 31.6 µM
TGI [56]: 11.7 µM
TGI [57]: 23.8 µM
TGI [58]: > 87 µM
TGI [59]: > 51.5 µM

COc1ccc(C2S/C(=C\c3ccc([N+](=O)[O-])cc3)C(=O)N2NC(=O)Cc2ccccc2)cc1 (centres undefined)
TGI [1]: > 100 µM
TGI [3]: > 100 µM
TGI [60]: > 100 µM
TGI [4]: > 100 µM
TGI [5]: > 100 µM
TGI [6]: > 100 µM
TGI [8]: > 100 µM
TGI [9]: > 100 µM
TGI [10]: > 100 µM
TGI [12]: > 100 µM
TGI [13]: > 100 µM
TGI [14]: > 100 µM
TGI [15]: > 100 µM
TGI [61]: > 100 µM
TGI [16]: > 100 µM
TGI [17]: > 100 µM
TGI [18]: > 100 µM
TGI [20]: > 100 µM
TGI [21]: > 100 µM
TGI [22]: > 100 µM
TGI [24]: > 100 µM
TGI [25]: > 100 µM
TGI [26]: > 100 µM
TGI [27]: > 100 µM
TGI [28]: > 100 µM
TGI [30]: > 100 µM
TGI [31]: > 100 µM
TGI [32]: > 100 µM
TGI [34]: > 100 µM
TGI [35]: > 100 µM
TGI [36]: > 100 µM
TGI [38]: > 100 µM
TGI [62]: > 100 µM
TGI [39]: > 100 µM
TGI [40]: > 100 µM
TGI [41]: > 100 µM
TGI [42]: > 100 µM
TGI [43]: > 100 µM
TGI [44]: > 100 µM
TGI [46]: > 100 µM
TGI [47]: > 100 µM
TGI [63]: > 100 µM
TGI [49]: > 100 µM
TGI [52]: > 100 µM
TGI [53]: > 100 µM
TGI [54]: > 100 µM
TGI [64]: > 100 µM
TGI [57]: > 100 µM
TGI [58]: > 100 µM
TGI [59]: > 100 µM
TGI [65]: > 100 µM
